Measured values from US7981903B2, “2-[2-{phenylamino}-1H-pyrrolo[2,3-D]pyrimidin-4-yl)amino] benzamide derivatives as IGF-1R inhibitors for the treatment of cancer” (GlaxoSmithKline LLC, priority 2007, dated 2011).

Assays:
ALK = ALK (Homo sapiens, UniProt Q9UM73); assay: ALK enzyme assay (HTRF); type: biochemical; details: 0.25 nM ALK, 15.0 μM ATP, values given as pIC50 category
Procedure, shortened: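 Final compound range 0.00017 to 10 μM (twelve 1:3 dilutions). Kinase reaction with ATP and biotinylated synthetic peptide runs 120 min at 20° C, stopped with EDTA; phosphotyrosine detected by HTRF after 60 min. Inhibition referenced to DMSO (1%) and EDTA (0.1 M) controls, curve-fitted.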

human IR (hIR) = molecular target: T1, human IR (hIR) (Homo sapiens, UniProt P06213); assay: TR-FRET kinase assay of purified hIR; type: biochemical; details: activated hIR 0.5 nM, 10 μM ATP, values given as pIC50 category
T1 construct: containing amino acid residues 979-1382 of human IR; made in house; host or cells: Sf9 cells (baculovirus), same process as hIGF1R
T1 sequence (P06213 979-1382): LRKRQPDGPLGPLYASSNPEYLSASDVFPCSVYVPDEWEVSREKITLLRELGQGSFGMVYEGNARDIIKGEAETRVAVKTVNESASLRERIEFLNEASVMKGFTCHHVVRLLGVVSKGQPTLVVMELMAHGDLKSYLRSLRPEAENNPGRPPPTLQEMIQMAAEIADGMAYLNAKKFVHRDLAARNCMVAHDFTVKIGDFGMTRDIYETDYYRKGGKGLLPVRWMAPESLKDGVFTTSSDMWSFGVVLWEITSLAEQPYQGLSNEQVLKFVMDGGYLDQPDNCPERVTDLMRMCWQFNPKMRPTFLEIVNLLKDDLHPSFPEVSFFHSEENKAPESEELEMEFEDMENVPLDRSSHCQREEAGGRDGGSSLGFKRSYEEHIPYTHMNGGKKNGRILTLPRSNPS

[1] = molecular target: T2, NIH-3T3 cells overexpressing human IGF-1R (Homo sapiens, UniProt P08069); assay: IGF-1R cellular autophosphorylation (DELFIA); type: cell-based
T2 construct: expressed in transfected cells; host or cells: NIH-3T3 (mouse fibroblasts)
T2 sequence (P08069 31-1367): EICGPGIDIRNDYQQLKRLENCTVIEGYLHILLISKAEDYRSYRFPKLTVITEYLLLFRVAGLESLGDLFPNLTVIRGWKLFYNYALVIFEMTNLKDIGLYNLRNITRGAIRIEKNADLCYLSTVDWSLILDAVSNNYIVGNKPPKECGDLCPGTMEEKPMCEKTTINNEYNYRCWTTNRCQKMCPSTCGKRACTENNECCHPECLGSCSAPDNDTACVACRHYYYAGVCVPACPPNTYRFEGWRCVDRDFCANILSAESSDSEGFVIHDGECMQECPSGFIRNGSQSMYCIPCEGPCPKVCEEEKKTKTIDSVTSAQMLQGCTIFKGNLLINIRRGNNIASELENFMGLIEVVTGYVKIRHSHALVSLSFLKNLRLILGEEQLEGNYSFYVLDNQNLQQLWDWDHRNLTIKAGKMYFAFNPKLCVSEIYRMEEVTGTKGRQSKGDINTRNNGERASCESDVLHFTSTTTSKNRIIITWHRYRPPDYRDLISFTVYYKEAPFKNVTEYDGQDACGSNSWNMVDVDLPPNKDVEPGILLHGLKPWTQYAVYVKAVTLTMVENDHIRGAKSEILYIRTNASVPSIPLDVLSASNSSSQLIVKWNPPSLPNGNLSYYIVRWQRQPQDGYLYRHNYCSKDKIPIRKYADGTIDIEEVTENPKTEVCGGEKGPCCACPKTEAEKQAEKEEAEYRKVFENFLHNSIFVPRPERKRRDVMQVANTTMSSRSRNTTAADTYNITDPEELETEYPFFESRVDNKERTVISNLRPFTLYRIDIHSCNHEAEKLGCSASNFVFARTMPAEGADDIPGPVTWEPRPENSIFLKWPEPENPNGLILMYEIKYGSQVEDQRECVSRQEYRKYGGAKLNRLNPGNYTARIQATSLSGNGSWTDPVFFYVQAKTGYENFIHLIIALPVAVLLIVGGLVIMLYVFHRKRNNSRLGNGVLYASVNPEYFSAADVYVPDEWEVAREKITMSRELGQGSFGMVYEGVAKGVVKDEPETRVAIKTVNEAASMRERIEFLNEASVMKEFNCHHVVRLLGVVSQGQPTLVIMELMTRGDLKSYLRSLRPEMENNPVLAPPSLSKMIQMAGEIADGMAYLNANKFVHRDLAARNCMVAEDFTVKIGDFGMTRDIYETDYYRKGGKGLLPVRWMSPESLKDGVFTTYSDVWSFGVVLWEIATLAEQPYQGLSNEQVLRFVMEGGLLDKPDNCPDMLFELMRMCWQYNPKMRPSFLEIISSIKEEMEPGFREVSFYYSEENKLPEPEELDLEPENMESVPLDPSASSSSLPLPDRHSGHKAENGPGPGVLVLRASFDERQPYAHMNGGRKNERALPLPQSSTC
Procedure, shortened: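 Receptor autophosphorylation measured by DELFIA, capturing IGF-1R or IRβ and detecting with europium anti-pTyr, reported as percent of IGF-1- or insulin-stimulated signal. Compounds (30 uM to 1.5 nM) added 2 h before ligand, then 15 min stimulation (IGF-1 30 ng/ml or insulin 3 ug/ml).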

Sequence of ALK (Q9UM73 19-1620): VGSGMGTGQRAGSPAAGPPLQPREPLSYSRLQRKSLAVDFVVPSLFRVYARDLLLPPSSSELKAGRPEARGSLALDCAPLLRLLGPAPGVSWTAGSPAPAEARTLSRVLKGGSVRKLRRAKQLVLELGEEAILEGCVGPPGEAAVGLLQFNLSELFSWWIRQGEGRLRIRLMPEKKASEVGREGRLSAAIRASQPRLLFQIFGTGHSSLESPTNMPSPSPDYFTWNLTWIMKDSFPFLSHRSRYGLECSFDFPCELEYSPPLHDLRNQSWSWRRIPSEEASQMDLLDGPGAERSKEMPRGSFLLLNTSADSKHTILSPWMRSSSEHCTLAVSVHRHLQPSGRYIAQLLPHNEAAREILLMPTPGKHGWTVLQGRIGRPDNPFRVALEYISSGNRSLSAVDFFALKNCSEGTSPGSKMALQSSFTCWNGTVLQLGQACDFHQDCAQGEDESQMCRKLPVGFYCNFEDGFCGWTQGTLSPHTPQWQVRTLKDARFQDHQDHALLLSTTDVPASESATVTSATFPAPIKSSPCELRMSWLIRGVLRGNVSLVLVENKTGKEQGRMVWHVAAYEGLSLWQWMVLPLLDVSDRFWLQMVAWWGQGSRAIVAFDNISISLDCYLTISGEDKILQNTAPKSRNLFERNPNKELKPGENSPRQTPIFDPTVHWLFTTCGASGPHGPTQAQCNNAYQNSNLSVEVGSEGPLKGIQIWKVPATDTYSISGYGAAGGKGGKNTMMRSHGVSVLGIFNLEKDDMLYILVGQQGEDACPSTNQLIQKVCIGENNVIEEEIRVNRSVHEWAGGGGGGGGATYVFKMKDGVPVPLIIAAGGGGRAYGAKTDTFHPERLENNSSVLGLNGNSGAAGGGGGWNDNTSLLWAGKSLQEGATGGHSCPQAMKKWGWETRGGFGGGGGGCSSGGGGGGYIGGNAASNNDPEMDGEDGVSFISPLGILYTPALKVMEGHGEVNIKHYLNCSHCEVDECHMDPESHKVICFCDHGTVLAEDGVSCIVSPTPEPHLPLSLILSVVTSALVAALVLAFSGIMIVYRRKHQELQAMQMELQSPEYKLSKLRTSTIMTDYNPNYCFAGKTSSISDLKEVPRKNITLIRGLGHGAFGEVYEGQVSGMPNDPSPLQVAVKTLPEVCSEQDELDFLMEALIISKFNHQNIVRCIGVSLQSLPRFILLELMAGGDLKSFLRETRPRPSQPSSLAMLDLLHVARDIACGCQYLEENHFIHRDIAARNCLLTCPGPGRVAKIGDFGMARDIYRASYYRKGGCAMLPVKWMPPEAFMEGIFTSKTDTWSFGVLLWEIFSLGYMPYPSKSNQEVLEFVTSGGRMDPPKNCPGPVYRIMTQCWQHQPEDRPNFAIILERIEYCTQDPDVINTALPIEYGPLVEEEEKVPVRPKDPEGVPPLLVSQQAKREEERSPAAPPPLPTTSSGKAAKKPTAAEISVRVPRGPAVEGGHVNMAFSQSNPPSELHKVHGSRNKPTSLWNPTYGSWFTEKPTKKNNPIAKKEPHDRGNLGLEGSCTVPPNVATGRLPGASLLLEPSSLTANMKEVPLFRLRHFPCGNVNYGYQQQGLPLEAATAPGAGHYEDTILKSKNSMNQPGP

| IC50 (ALK) [nM] | IC50 (human IR (hIR)) [nM] | IC50 [1] [nM] | Compound |
| --- | --- | --- | --- |
| 0.251 to 1 | 1.26 to 3.98 | > 500 | CCCN1CCC=C(c2ccc(Nc3nc(Nc4cc(F)ccc4C(=O)N[C@@H](C)CC)c4cc[nH]c4n3)c(OC)c2)C1 [Example 87, 4-fluoro-2-[(2-{[2-(methyloxy)-4-(1-propyl-1,2,5,6-tetrahydro-3-pyridinyl)phenyl]amino}-1H-pyrrolo[2,3-d]pyrimidin-4-yl)amino]-N-[(1S)-1-methylpropyl]benzamide] |
| 1.26 to 3.98 | 1.26 to 3.98 | > 500 | COc1cc(N2CCN(C(C)C)CC2)ccc1Nc1nc(Nc2cc(F)cc(OC)c2C(N)=O)c2cc[nH]c2n1 [Example 88] |
| 0.251 to 1 | 1.26 to 3.98 | 100 to 500 | COc1cc(N2CCN(C(C)C)CC2)ccc1Nc1nc(Nc2cc(Cl)cc(F)c2C(N)=O)c2cc[nH]c2n1 [Example 93, 4-chloro-2-fluoro-6-[(2-{[4-[4-(1-methylethyl)-1-piperazinyl]-2-(methyloxy)phenyl]amino}-1H-pyrrolo[2,3-d]pyrimidin-4-yl)amino]benzamide] |
| 0.251 to 1 | 1.26 to 3.98 | 100 to 500 | COc1cc(N2CCN(C(C)C)CC2)ccc1Nc1nc(Nc2ccc(F)c(F)c2C(N)=O)c2cc[nH]c2n1 [Example 94, 2,3-difluoro-6-[(2-{[4-[4-(1-methylethyl)-1-piperazinyl]-2-(methyloxy)phenyl]amino}-1H-pyrrolo[2,3-d]pyrimidin-4-yl)amino]benzamide] |
| 0.251 to 1 | 0.251 to 1 | < 100 | COc1cc(C2CCN(C(C)C)CC2)ccc1Nc1nc(Nc2cc(F)c(F)cc2C(N)=O)c2cc[nH]c2n1 [Example 97, 4,5-difluoro-2-[(2-{[4-[1-(1-methylethyl)-4-piperidinyl]-2-(methyloxy)phenyl]amino}-1H-pyrrolo[2,3-d]pyrimidin-4-yl)amino]benzamide] |
| 0.251 to 1 | 0.251 to 1 | < 100 | CCCN1CCC(c2ccc(Nc3nc(Nc4cc(F)c(F)cc4C(N)=O)c4cc[nH]c4n3)c(OC)c2)CC1 [Example 98, 4,5-difluoro-2-[(2-{[2-(methyloxy)-4-(1-propyl-4-piperidinyl)phenyl]amino}-1H-pyrrolo[2,3-d]pyrimidin-4-yl)amino]benzamide] |
| 0.251 to 1 | 0.251 to 1 | < 100 | COc1cc(N2CCC(O)CC2)ccc1Nc1nc(Nc2cc(F)c(F)cc2C(N)=O)c2cc[nH]c2n1 [Example 99] |
| 0.251 to 1 | 0.251 to 1 | < 100 | COc1cc(N2CCC(N3CCCCC3)CC2)ccc1Nc1nc(Nc2cc(F)c(F)cc2C(N)=O)c2cc[nH]c2n1 [Example 100, 2-[(2-{[4-(1,4′-bipiperidin-1′-yl)-2-(methyloxy)phenyl]amino}-1H-pyrrolo[2,3-d]pyrimidin-4-yl)amino]-4,5-difluorobenzamide] |
| 0.251 to 1 | 0.251 to 1 | < 100 | COc1cc(N2CCC(N3CCOCC3)CC2)ccc1Nc1nc(Nc2cc(F)c(F)cc2C(N)=O)c2cc[nH]c2n1 [Example 101, 4,5-difluoro-2-{[2-({2-(methyloxy)-4-[4-(4-morpholinyl)-1-piperidinyl]phenyl}amino)-1H-pyrrolo[2,3-d]pyrimidin-4-yl]amino}benzamide] |
| 1.26 to 3.98 | 0.251 to 1 | < 100 | COc1cc(N2CCN(C(C)=O)CC2)ccc1Nc1nc(Nc2cc(F)c(F)cc2C(N)=O)c2cc[nH]c2n1 [Example 103, 2-[(2-{[4-(4-acetyl-1-piperazinyl)-2-(methyloxy)phenyl]amino}-1H-pyrrolo[2,3-d]pyrimidin-4-yl)amino]-4,5-difluorobenzamide] |
| 1.26 to 3.98 | 0.251 to 1 | < 100 | COc1cc(N2CCOCC2)ccc1Nc1nc(Nc2cc(F)c(F)cc2C(N)=O)c2cc[nH]c2n1 [Example 104, 4,5-difluoro-2-[(2-{[2-(methyloxy)-4-(4-morpholinyl)phenyl]amino}-1H-pyrrolo[2,3-d]pyrimidin-4-yl)amino]benzamide] |
| 1.26 to 3.98 | 0.251 to 1 | < 100 | COc1cc(N2CCOC[C@@H]2C)ccc1Nc1nc(Nc2cc(F)c(F)cc2C(N)=O)c2cc[nH]c2n1 [Example 105, 4,5-difluoro-2-[(2-{[4-[(3S)-3-methyl-4-morpholinyl]-2-(methyloxy)phenyl]amino}-1H-pyrrolo[2,3-d]pyrimidin-4-yl)amino]benzamide] |
| 0.251 to 1 | 1.26 to 3.98 | 100 to 500 | COc1cc(N2CCC(C3CCN(CCS(C)(=O)=O)CC3)CC2)ccc1Nc1nc(Nc2cccc(F)c2C(N)=O)c2cc[nH]c2n1 [Example 112, 2-fluoro-6-({2-[(2-(methyloxy)-4-{1′-[2-(methylsulfonyl)ethyl]-4,4′-bipiperidin-1-yl}phenyl)amino]-1H-pyrrolo[2,3-d]pyrimidin-4-yl}amino)benzamide] |
| 0.251 to 1 | 0.251 to 1 | < 100 | COc1cc(N2CCC(N3CCN(S(C)(=O)=O)CC3)CC2)ccc1Nc1nc(Nc2cccc(F)c2C(N)=O)c2cc[nH]c2n1 [Example 113, 2-fluoro-6-({2-[(2-(methyloxy)-4-{4-[4-(methylsulfonyl)-1-piperazinyl]-1-piperidinyl}phenyl)amino]-1H-pyrrolo[2,3-d]pyrimidin-4-yl}amino)benzamide] |
| 1.26 to 3.98 | 1.26 to 3.98 | < 100 | COc1cc(N2CCC(N3CCN(CCF)CC3)CC2)ccc1Nc1nc(Nc2cccc(F)c2C(N)=O)c2cc[nH]c2n1 [Example 114, 2-fluoro-6-[(2-{[4-{4-[4-(2-fluoroethyl)-1-piperazinyl]-1-piperidinyl}-2-(methyloxy)phenyl]amino}-1H-pyrrolo[2,3-d]pyrimidin-4-yl)amino]benzamide] |
| 0.251 to 1 | 1.26 to 3.98 | 100 to 500 | COc1cc(N2CCC(N3CCN(CCS(C)(=O)=O)CC3)CC2)ccc1Nc1nc(Nc2cccc(F)c2C(N)=O)c2cc[nH]c2n1 [Example 115, 2-fluoro-6-[(2-{[2-(methyloxy)-4-(4-{4-[2-(methylsulfonyl)ethyl]-1-piperazinyl}-1-piperidinyl)phenyl]amino}-1H-pyrrolo[2,3-d]pyrimidin-4-yl)amino]benzamide] |
| 1.26 to 3.98 | 1.26 to 3.98 | 100 to 500 | COc1cc2c(cc1Nc1nc(Nc3cccc(F)c3C(N)=O)c3cc[nH]c3n1)CN(C(=O)CN(C)C)CC2 [Example 123, 2-[(2-{[2-(N,N-dimethylglycyl)-6-(methyloxy)-1,2,3,4-tetrahydro-7-isoquinolinyl]amino}-1H-pyrrolo[2,3-d]pyrimidin-4-yl)amino]-6-fluorobenzamide] |
| 0.251 to 1 | 1.26 to 3.98 | 100 to 500 | CCNC(=O)c1c(F)cccc1Nc1nc(Nc2cc3c(cc2OC)CCN3C(=O)CN(C)C)nc2[nH]ccc12 [Example 126, 2-[(2-{[1-(N,N-dimethylglycyl)-5-(methyloxy)-2,3-dihydro-1H-indol-6-yl]amino}-1H-pyrrolo[2,3-d]pyrimidin-4-yl)amino]-N-ethyl-6-fluorobenzamide] |
| 0.251 to 1 | 1.26 to 3.98 | < 100 | CNC(=O)c1c(F)cccc1Nc1nc(Nc2cc3c(cc2OC)C(C)(C)CN3C(=O)CN(C)C)nc2[nH]ccc12 [Example 127, 2-[(2-{[1-(N,N-dimethylglycyl)-3,3-dimethyl-5-(methyloxy)-2,3-dihydro-1H-indol-6-yl]amino}-1H-pyrrolo[2,3-d]pyrimidin-4-yl)amino]-6-fluoro-N-methylbenzamide] |
